Test results published in the NIST ThermoML archive (doi:10.1021/acs.jced.5b00549).

Assay: mn = molality of the nth substance listed, in mol/kg
Conditions: 100 kPa, Liquid; for viscosity: Capillary tube (Ostwald / Ubbelohde) method; for speed of sound: Frequency=3 MHz, Sing-around technique in a fixed-path interferometer; for mass density: Vibrating tube method

CN(C)C(=N)NC(=N)N.Cl [N,N-dimethylimidodicarbonimidic diamide hydrochloride] + O
Conditions	mass density, m1 = 0.01 [kg/m3]	mass density, m1 = 0.07 [kg/m3]	mass density, m1 = 0.13 [kg/m3]	speed of sound, m1 = 0.01 [m/s]	speed of sound, m1 = 0.07 [m/s]	speed of sound, m1 = 0.13 [m/s]	viscosity, m1 = 0.01 [mPa·s]	viscosity, m1 = 0.07 [mPa·s]	viscosity, m1 = 0.13 [mPa·s]
293.15 K	998.57	1000.83	1003.13	1483.3	1490.2	1496.3	1.01	1.015	1.019
298.15 K	997.402	999.633	1001.9	1497.3	1503.9	1509.7	0.8925	0.899	0.9052
303.15 K	995.993	998.2	1000.45	1509.7	1515.8	1521.3	0.8013	0.8074	0.8126
308.15 K	994.369	996.524	998.785	1520.3	1526	1531.3	0.7245	0.7285	0.7333
313.15 K	992.542	994.71	996.926	1529.4	1534.8	1539.8	0.6566	0.6606	0.6662
